6 molecules from patent publication US20250121078A1, “PEPTIDE DRUG CONJUGATES AND THEIR USES” (priority 2023, published 2025) can be followed below.

pIC50: −log10 of the molar value. Where a SMILES comes first, the peptide text is derived from it. [ ]: non-standard residue; d: D form. The star is where a group is joined. Propanoyl(3-SS-DM1) = COc1cc2cc(c1Cl)N(C)C(=O)C[C@H](OC(=O)[C@H](C)N(C)C(=O)CCSSCCC(=O)*)[C@]1(C)O[C@H]1[C@H](C)[C@@H]1C[C@@](O)(NC(=O)O1)[C@H](OC)/C=C/C=C(\C)C2; d(hArg(Et2)) = CCN=C(NCC)NCCCC[C@@H](N)C(=O)O; hArg(Et2) = CCN=C(NCC)NCCCC[C@H](N)C(=O)O; dPhe(4-Cl) = N[C@H](Cc1ccc(Cl)cc1)C(=O)O; d2Nal = N[C@H](Cc1ccc2ccccc2c1)C(=O)O; d3Pal = N[C@H](Cc1cccnc1)C(=O)O

One experiment addresses T1, LHRHR, also known as GnRHR (Homo sapiens, UniProt P30968).
T1 sequence (P30968 1-328): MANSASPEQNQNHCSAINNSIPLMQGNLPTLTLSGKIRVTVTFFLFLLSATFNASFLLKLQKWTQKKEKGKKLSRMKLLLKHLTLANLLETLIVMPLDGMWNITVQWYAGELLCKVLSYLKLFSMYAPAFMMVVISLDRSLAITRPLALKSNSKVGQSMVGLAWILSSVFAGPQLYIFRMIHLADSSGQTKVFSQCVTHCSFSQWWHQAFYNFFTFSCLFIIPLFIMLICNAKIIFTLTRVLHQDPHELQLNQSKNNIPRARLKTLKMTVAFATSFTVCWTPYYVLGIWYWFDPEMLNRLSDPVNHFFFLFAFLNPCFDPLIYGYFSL
The experiment in a line: Radioligand binding assay ([125I]-[D-Trp6]-LHRH displacement).
Conditions: not given
The procedure: An amount of 2 μg of a purified membrane with LHRHR, also known as GnRHR, was incubated with 0.18 nM [125I]-[D-Trp6]-LHRH and compounds of interest in the incubation buffer (50 mM HEPES, pH 7.4, 5 mM MgCl2, 1 mM CaCl2, and 0.2% BSA). The reaction mixtures were incubated for 1 h at 25° C. and then were transferred to a 96-well GF/B filter plate (Millipore Corp., Billerica, MA, USA), which were terminated by manifold filtration and washed with a wash buffer (50 mM HEPES, pH 7.4, and 100 mM NaCl) for six times. The radioactivity bound to the filter was measured by a Topcount® system (PerkinElmer Inc., Waltham, MA, USA). IC50 values were determined by the concentration of a compound required to inhibit 50% of the specific binding of [125I]-[D-Trp6]-LHRH and calculated by nonlinear regression (GraphPad Software, San Diego, CA, USA). The design of these drug conjugates is to actively targeting LHRH-receptor at tumor site and facilitate drug conjugate accumulation in situ. Therefore, selective and strong binding of the synthetic peptide ligand with the receptor is important to allow enrichment of these conjugates, followed by release of the drug payload in the tumor microenvironment.
Compounds of the invention have a binding as low as 0.17 nM.
In turn, `COc1cc2cc(c1Cl)N(C)C(=O)C[C@H](OC(=O)[C@H](C)N(C)C(=O)CCSSCCC(=O)NCCCC[C@@H](NC(=O)[C@H](Cc1ccc(O)cc1)NC(=O)[C@H](CO)NC(=O)[C@@H](Cc1cccnc1)NC(=O)[C@@H](Cc1ccc(Cl)cc1)NC(=O)[C@@H](Cc1ccc3ccccc3c1)NC(C)=O)C(=O)N[C@@H](CC(C)C)C(=O)N[C@H](CCCNC(=N)N)C(=O)N1CCC[C@H]1C(=O)N[C@H](C)C(N)=O)[C@]1(C)O[C@H]1[C@H](C)[C@@H]1C[C@@](O)(NC(=O)O1)[C@H](OC)/C=C/C=C(\C)C2` [Compound 24] (Ac-[d2Nal][dPhe(4-Cl)][d3Pal]SY[dK](Propanoyl(3-SS-DM1))L[dR]P[dA]-NH2) gave a pIC50 of 8.00 to 9.00.
On the same count and under the same terms, under `CCNC(=NCCCC[C@H](NC(=O)[C@H](CC(C)C)NC(=O)[C@@H](CCCCNC(=O)CCSSCCC(=O)N(C)[C@@H](C)C(=O)O[C@H]1CC(=O)N(C)c2cc(cc(OC)c2Cl)C/C(C)=C/C=C/[C@@H](OC)[C@@]2(O)C[C@H](OC(=O)N2)[C@@H](C)[C@@H]2O[C@@]12C)NC(=O)[C@H](Cc1ccc(O)cc1)NC(=O)[C@H](CO)NC(=O)[C@@H](Cc1cccnc1)NC(=O)[C@@H](Cc1ccc(Cl)cc1)NC(=O)[C@@H](Cc1ccc2ccccc2c1)NC(C)=O)C(=O)N1CCC[C@H]1C(=O)N[C@H](C)C(N)=O)NCC` [Compound 23] (Ac-[d2Nal][dPhe(4-Cl)][d3Pal]SY[dK](Propanoyl(3-SS-DM1))L[hArg(Et2)]P[dA]-NH2) stands 9.00 to 10.00.
`COc1cc2cc(c1Cl)N(C)C(=O)C[C@H](OC(=O)[C@H](C)N(C)C(=O)CCSC(=O)OCc1ccc(O[Si](OCCCn3nnc4c3CC[C@@H]3[C@H](CC4)[C@H]3COC(=O)N(CCCC[C@H](NC(=O)[C@H](CC(C)C)NC(=O)[C@@H](Cc3ccc(NC(N)=O)cc3)NC(=O)[C@H](Cc3ccc(NC(=O)[C@@H]4CC(=O)NC(=O)N4)cc3)NC(=O)[C@H](CO)NC(=O)[C@@H](Cc3cccnc3)NC(=O)[C@@H](Cc3ccc(Cl)cc3)NC(=O)[C@@H](Cc3ccc4ccccc4c3)NC(C)=O)C(=O)N3CCC[C@H]3C(=O)N[C@H](C)C(N)=O)C(C)C)(C(C)C)C(C)C)cc1)[C@]1(C)O[C@H]1[C@H](C)[C@@H]1C[C@@](O)(NC(=O)O1)[C@H](OC)/C=C/C=C(\C)C2` [Compound 19] had a pIC50 of 8.00 to 9.00.

Still in this experiment, the particulars now being: purified membrane with LHRHR, 0.18 nM [125I]-[D-Trp6]-LHRH, 1 h at 25° C.; read-out: Binding Assay.
Regarding `COc1cc2cc(c1Cl)N(C)C(=O)C[C@H](OC(=O)[C@H](C)N(C)C(=O)CCSC(=O)OC[C@H]1[C@@H]3CCc4c(nnn4CCCC[C@@H](NC(=O)[C@H](Cc4ccc(O)cc4)NC(=O)[C@H](CO)NC(=O)[C@@H](Cc4cccnc4)NC(=O)[C@@H](Cc4ccc(Cl)cc4)NC(=O)[C@@H](Cc4ccc5ccccc5c4)NC(C)=O)C(=O)N[C@@H](CC(C)C)C(=O)N[C@@H](CCCNC(=N)N)C(=O)N4CCC[C@H]4C(=O)N[C@H](C)C(N)=O)CC[C@@H]31)[C@]1(C)O[C@H]1C(C)[C@@H]1C[C@@](O)(NC(=O)O1)[C@H](OC)/C=C/C=C(\C)C2` (stereo partly drawn) [Compound 20], the pIC50 was 9.00 to 10.00.
`CCNC(=NCCCC[C@H](NC(=O)[C@H](CC(C)C)NC(=O)[C@@H](CCCCN)NC(=O)[C@H](Cc1ccc(O)cc1)NC(=O)[C@H](CO)NC(=O)[C@@H](Cc1cccnc1)NC(=O)[C@@H](Cc1ccc(Cl)cc1)NC(=O)[C@@H](Cc1ccc2ccccc2c1)NC(C)=O)C(=O)N1CCC[C@H]1C(=O)N[C@H](C)C(N)=O)NCC` [Compound 12] (Ac-[d2Nal][dPhe(4-Cl)][d3Pal]SY[dK]L[hArg(Et2)]P[dA]-NH2): the pIC50 is 9.00 to 10.00.
As to `CCNC(=NCCCC[C@@H](NC(=O)[C@H](CCCCN)NC(=O)[C@H](CO)NC(=O)[C@@H](Cc1cccnc1)NC(=O)[C@@H](Cc1ccc(Cl)cc1)NC(=O)[C@@H](Cc1ccc2ccccc2c1)NC(C)=O)C(=O)N[C@@H](CC(C)C)C(=O)N[C@H](CCCCN=C(NCC)NCC)C(=O)N1CCC[C@H]1C(=O)N[C@H](C)C(N)=O)NCC` [Compound 4] (Ac-[d2Nal][dPhe(4-Cl)][d3Pal]SK[d(hArg(Et2))]L[d(hArg(Et2))]P[dA]-NH2), the pIC50 is under 7.00.
